Measurements from US12370183B2, “Compositions and methods for treating malaria” (Rutgers, The State University of New Jersey, priority 2020, dated 2025).
Like-named read-outs stand apart in the source and are kept apart here.

Columns and labels:
[1] = test system: 3D7 strain of Plasmodium falciparum; experiment: Potency in the 3D7 strain of Plasmodium falciparum (EC50); type: cell-based; conditions: Plasmodium falciparum
[2] = test system: resistant P. falciparum variant K1; experiment: Potency against resistant P. falciparum variant K1 (EC50); type: cell-based; conditions: Plasmodium falciparum
[3] = Stability of the pyrrolinone to acid followed by H-1 NMR; type: physicochemical; conditions: methanol-D4, deuterated acetic acid dropwise; reversed by sodium hydride
Experimental: Without wishing to be bound by any particular theory or mechanism of action, it can be contemplated that the unique aminal structure of the pyrrolinones imparts specific chemical behavior. Aminals are normally unstable functionalities that are prone to hydrolysis. To test the stability of the […], a solution of 177 in methanol-D4 was treated dropwise with deuterated acetic acid. The experiment was followed by H-1 NMR analysis by observing the reduction of the peaks at 6.12 ppm and 8.73 ppm and the appearance of a peak at 9.42. […] Basifying the solution with sodium hydride returns the mixture to pyrrolinone.

[4] = 3D7, read-out: 3D7 Mean EC50 (μM)

Row | SMILES | EC50 ([1]; 3D7, read-out: 3D7 EC50) | EC50 [1, 4] | EC50 ([2]; K1, read-out: K1 EC50) | EC50 ([2]; K1, read-out: K1 EC50 (μM)) | stability to acid, in words [3]
1 | O=C(Nc1ccc(F)c(F)c1)c1c2c(nc3ccccc13)CCN(Cc1ccccc1)C2 [Compound 66, 2-Benzyl-N-(3,4-difluorophenyl)-1,2,3,4-tetrahydrobenzo[b][1,6]naphthyridine-10-carboxamide] | 0.0204 µM | > 3.49 µM | 0.0108 µM | 0.279 µM | –
2 | O=C1c2c3c(nc4ccccc24)CCN(Cc2ccccc2)C3N1c1ccc(F)c(F)c1 (stereo not drawn) [Compound 177, 3-Benzyl-2-(3,4-difluorophenyl)-2a,3,4,5-tetrahydrobenzo[b]pyrrolo[4,3,2-de][1,6]naphthyridin-1(2H)-one] | – | 0.00328 ± 0.000533 µM | – | – | Acidification causes the compound to begin conversion into another substance
